Results published in US20060069132A1, “Azolecarboxamide herbicides” (priority 2004, published 2006).

Key:
[1] = tested on: ducksalad; assay: Test C flooded paddy test; type: in vivo, Heteranthera limosa
[2] = tested on: barnyardgrass; assay: Test B pre-/postemergence herbicide test; type: in vivo, Echinochloa crus-galli; details: for Barnyardgrass plant response rating: postemergence
Outline: (§1)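 Evaluation is visual, comparing treated with control plants on a scale where 0 means no effect and 100 means full control. Treatments were preemergence, or postemergence on seedlings 2–18 cm tall, and held 13–15 days in the greenhouse.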

[3] = tested on: rice; assay: Test B flooded paddy test; type: in vivo, Oryza sativa; details: 1000 g ai/ha, scale 0 to 100 (0 no effect, 100 complete control)
Outline: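 After treating 2-leaf paddy plants or 2–18 cm postemergence plants (1 to 4 leaves) with formulated chemical, researchers kept them in a greenhouse for 13–15 days. Effects were judged visually versus controls: 0 indicates none, 100 total control.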

[4] = tested on: lambsquarters; assay: Test B pre-/postemergence herbicide test; type: in vivo, Chenopodium album; details: for Lambsquarters plant response rating: postemergence
Outline: (§2)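 Flooded paddy rice and barnyardgrass were treated at the 2-leaf stage; upland plantings received compound either on sown seed or on 1- to 4-leaf seedlings. All were kept 13–15 days in a greenhouse and scored visually, 0–100, relative to untreated plants.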

[5] = tested on: rice; assay: Test B pre-/postemergence herbicide test; type: in vivo, Oryza sativa; details: 0 = no effect, 100 = complete control, preemergence
Outline: as §1

[6] = tested on: morningglory; assay: Test B pre-/postemergence herbicide test; type: in vivo, Ipomoea coccinea; details: for Morningglory plant response rating: postemergence
Outline: as §1

[7] = tested on: small flower umbrella sedge; assay: Test B flooded paddy test; type: in vivo, Cyperus difformis; details: 1000 g ai/ha, scale 0 to 100 (0 no effect, 100 complete control)
Outline: (§3)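 Each value is a visual 0–100 response rating taken against controls 13 to 15 days after treatment in the greenhouse. Plants received formulated chemical postemergence at the 1- to 4-leaf stage or, in flooded paddy, at the 2-leaf stage.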

[8] = tested on: smallflower umbrella sedge; assay: Test C flooded paddy test; type: in vivo, Cyperus difformis
[9] = tested on: corn; assay: Test B pre-/postemergence herbicide test; type: in vivo, Zea mays; details: for Corn plant response rating: postemergence
Outline: as §2

[10] = tested on: barnyardgrass; assay: Test C flooded paddy test; type: in vivo, Echinochloa crus-galli
Outline: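 Postemergence sprays applied to plants 2 to 18 cm tall (1- to 4-leaf stage); paddy species grown to 2-leaf stage under flooding. After 12 to 14 days in greenhouse, visual rating versus untreated controls on 0–100 scale (0 no effect, 100 complete control).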

[11] = tested on: velvetleaf; assay: Test B pre-/postemergence herbicide test; type: in vivo, Abutilon theophrasti; details: for Velvetleaf plant response rating: postemergence
Outline: as §2

[12] = tested on: Surinam grass; assay: Test B pre-/postemergence herbicide test; type: in vivo, Urochloa decumbens; details: for Surinam Grass plant response rating: postemergence
Outline: as §2

[13] = tested on: pigweed; assay: Test B pre-/postemergence herbicide test; type: in vivo, Amaranthus retroflexus; details: for Pigweed plant response rating: postemergence
Outline: as §2

[14] = tested on: ducksalad; assay: Test B flooded paddy test; type: in vivo, Heteranthera limosa; details: 1000 g ai/ha, scale 0 to 100 (0 no effect, 100 complete control)
Outline: as §3

[15] = tested on: blackgrass; assay: Test B postemergence herbicide test; type: in vivo, Alopecurus myosuroides; details: postemergence
Outline: as §3

[16] = tested on: wheat; assay: Test B postemergence herbicide test; type: in vivo, Triticum aestivum; design: key to Wheat plant response rating: 0 = no effect, 100 = complete control; details: postemergence
Outline: (§4)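 Postemergence plants were sprayed with formulated test chemicals at 2 to 18 cm height (1- to 4-leaf stage); paddy species were grown to the 2-leaf stage. After 13 to 15 days in a greenhouse, injury was rated visually against untreated controls on a 0–100 scale (0 = no effect, 100 = complete control).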

[17] = tested on: wild oat; assay: Test B postemergence herbicide test; type: in vivo, Avena fatua; details: postemergence
Outline: as §4

[18] = tested on: cocklebur; assay: Test B pre-/postemergence herbicide test; type: in vivo, Xanthium strumarium; details: for Cocklebur plant response rating: postemergence
Outline: as §1

[19] = tested on: large crabgrass; assay: Test B pre-/postemergence herbicide test; type: in vivo, Digitaria sanguinalis; details: for Crabgrass, Large plant response rating: postemergence
Outline: as §2

[20] = tested on: giant foxtail; assay: Test B pre-/postemergence herbicide test; type: in vivo, Setaria faberi; details: for Foxtail, Giant plant response rating: postemergence
Outline: as §2

[21] = tested on: rice; assay: Test C flooded paddy test; type: in vivo, Oryza sativa
Outline: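 Plants were grown to the 1- to 4-leaf stage (2–18 cm) and then treated postemergence, or grown to the 2-leaf stage for the flooded paddy test. They were held in a greenhouse for 12 to 14 days and then scored by eye against controls, where 0 is no effect and 100 is complete control.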

[22] = tested on: barnyardgrass; assay: Test B flooded paddy test; type: in vivo, Echinochloa crus-galli; details: 1000 g ai/ha, scale 0 to 100 (0 no effect, 100 complete control)
Outline: as §3

[23] = 125 g ai/ha, scale 0 to 100 (0 no effect, 100 complete control)
[24] = 250 g ai/ha, scale of 0 to 100, 0 is no effect, 100 is complete control
[25] = 500 g ai/ha, visual rating after 12 to 14 days, scale 0 to 100 (0 no effect, 100 complete control)
[26] = 125 g ai/ha, 0 = no effect, 100 = complete control, preemergence
[27] = 125 g ai/ha, visual rating, scale 0 (no effect) to 100 (complete control)
[28] = 500 g ai/ha, visual rating, 0 = no effect, 100 = complete control, preemergence
[29] = 500 g ai/ha, scale 0 to 100, 0 is no effect, 100 is complete control

CCn1nc(C2(C)CC2)cc1C(=O)Nc1cccc(C(=O)N(C)C)c1 [Compound 303]
Ducksalad plant response rating ([1]; 62 g ai/ha, scale 0 to 100): 55 | Ducksalad plant response rating [1, 23]: 75 | Ducksalad plant response rating [1, 24]: 80 | Plant response rating, Ducksalad [1, 25]: 85 | Barnyardgrass plant response rating (0 to 100 scale) [2, 26]: 70 | Barnyardgrass plant response rating [2, 27]: 40 | Plant response rating, Barnyardgrass [2, 28]: 90 | Barnyardgrass plant response rating [2, 29]: 40 | Rice plant response rating [3]: 90 | Lambsquarters plant response rating (0 to 100 scale) [4, 26]: 100 | Lambsquarters plant response rating [4, 27]: 80 | Plant response rating, Lambsquarters [4, 28]: 100 | Lambsquarters plant response rating [4, 29]: 90 | Rice plant response rating (0 to 100 scale) ([5]; 125 g ai/ha): 70 | Plant response rating, Rice ([5]; 500 g ai/ha, visual rating): 80 | Morningglory plant response rating (0 to 100 scale) [6, 26]: 10 | Morningglory plant response rating [6, 27]: 80 | Plant response rating, Morningglory [6, 28]: 50 | Morningglory plant response rating [6, 29]: 90 | Sedge, Umbrella plant response rating [7]: 90 | Sedge, Umbrella plant response rating ([8]; 62 g ai/ha, scale 0 to 100): 75 | Sedge, Umbrella plant response rating [8, 23]: 85 | Sedge, Umbrella plant response rating [8, 24]: 85 | Plant response rating, Sedge, Umbrella [8, 25]: 90 | Corn plant response rating [9, 27]: 70 | Plant response rating, Corn [9, 28]: 70 | Corn plant response rating [9, 29]: 70 | Barnyardgrass plant response rating ([10]; 62 g ai/ha, scale 0 to 100 (0 no effect, 100 complete control)): 30 | Barnyardgrass plant response rating [10, 23]: 45 | Barnyardgrass plant response rating [10, 24]: 80 | Plant response rating, Barnyardgrass [10, 25]: 95 | Velvetleaf plant response rating [11, 27]: 30 | Plant response rating, Velvetleaf [11, 28]: 100 | Velvetleaf plant response rating [11, 29]: 70 | Surinam Grass plant response rating (0 to 100 scale) [12, 26]: 50 | Surinam Grass plant response rating [12, 27]: 10 | Plant response rating, Surinam Grass [12, 28]: 100 | Surinam Grass plant response rating [12, 29]: 20 | Pigweed plant response rating (0 to 100 scale) [13, 26]: 100 | Pigweed plant response rating [13, 27]: 70 | Plant response rating, Pigweed [13, 28]: 100 | Pigweed plant response rating [13, 29]: 90 | Ducksalad plant response rating [14]: 90 | Blackgrass plant response rating [15, 27]: 20 | Blackgrass plant response rating [15, 29]: 40 | Wheat plant response rating [16, 27]: 10 | Wheat plant response rating [16, 29]: 20 | Oat, Wild plant response rating [17, 27]: 30 | Oat, Wild plant response rating [17, 29]: 40 | Cocklebur plant response rating (0 to 100 scale) [18, 26]: 0 | Cocklebur plant response rating [18, 27]: 10 | Plant response rating, Cocklebur [18, 28]: 20 | Cocklebur plant response rating [18, 29]: 30 | Crabgrass, Large plant response rating (0 to 100 scale) [19, 26]: 100 | Crabgrass, Large plant response rating [19, 27]: 10 | Plant response rating, Crabgrass, Large [19, 28]: 100 | Crabgrass, Large plant response rating [19, 29]: 60 | Foxtail, Giant plant response rating (0 to 100 scale) [20, 26]: 50 | Foxtail, Giant plant response rating [20, 27]: 50 | Plant response rating, Foxtail, Giant [20, 28]: 100 | Foxtail, Giant plant response rating [20, 29]: 50 | Rice plant response rating ([21]; 62 g ai/ha, scale 0 to 100): 30 | Rice plant response rating [21, 23]: 65 | Rice plant response rating [21, 24]: 80 | Plant response rating, Rice [21, 25]: 85 | Barnyardgrass plant response rating [22]: 90
